PubChem BioAssay AID2060495 (Molecular Pharmacology Branch, DTP, NCI, 2025)
“And” between values parts separate entries of the source, which are not always exact repeats. Equal values may be shown once.

Tested on: 521955-158-R2-J5-PDC complex spheroid viability
Assay: Anticancer human tumor 521955-158-R2-J5-PDC patient-derived pancreatic carcinoma cell line growth inhibition [GQUAD]
Details: for viability, T/C: stronger effect = lower value
Text: DNA G-quadruplex Stabilizer Agents in Combinations in Complex Spheroids
A high-throughput screen of multi-cell type tumor spheroids was designed to identify active combinations of DNA G-quadruplex stabilizer agents and targeted small molecules. Complex spheroids include a stromal component modeled by human endothelial cells (HUVEC) and fibroblasts modeled by human mesenchymal stem cells (MSCs). The concentration ranges selected for each drug and investigational agent were based upon clinically achievable concentrations if the clinical Cmax of the agent was known.
Compounds. The drugs and investigational agents: pidnarulex (CX-5461; NSC782164), APTO-253 (NSC789042), BRACO-19 (NSC847499), peposertib (NSC802822), ceralasertib (NSC780249), elimusertib (NSC800525), camonsertib (NSC841442), AZD-1390 (NSC803789), olaparib (NSC753686), talazoparib (NSC767125), ART-558 (NSC835418), sotorasib (NSC818433), MRTX-1133 (NSC836407), SN-38 (NSC673596), topotecan (NSC609699), etoposide (NSC141540), doxorubicin (NSC123127), gemcitabine (NSC613327), 5-fluorouracil (NSC19893), paclitaxel (NSC125973), vemurafenib (NSC761431), panobinostat (NSC761190), R-306465 (JNJ-16241199; NSC773264), adavosertib (NSC754352), TP-3654 (NSC805149), carboplatin (NSC241240), KSQ-4279 (NSC840948), and staurosporine (NSC755774) were obtained from the National Cancer Institute (NCI) Developmental Therapeutics Program Chemical Repository (34). The FDA-approved anticancer drug set is available from the NCI Developmental Therapeutics Program. […] The stock solutions were prepared in dimethyl sulfoxide (DMSO, Sigma-Aldrich, St. Louis, MO, cat. D2650) at 800-fold the tested concentration and stored at -70 degrees C prior to their use. All drugs and investigational agents were tested over a range starting from a high concentration at or near the clinical Cmax and decreasing in half-log increments. If the clinical Cmax for an agent had not been determined, the highest concentration tested was 10 microM.
2.3 Cell Culture. All cells were maintained in an incubator at 37 degrees C and 5% CO2 with 95% humidity. The PDC lines were cultured according to standard operating procedures established by the NCI PDMR. All PDCs were thawed and cultured in Matrigel-coated flasks prepared with a working solution of 1X Ham's F-12 nutrient mix, without supplementation (Invitrogen, cat. 11765054), 100 U/mL penicillin-streptomycin (Invitrogen, cat. 15140122), and 2.5% Matrigel (Corning Inc., cat. 354248) for the first three passages. The 857933-349-R-J2-PDC line was cultured in 6C/Colon 1B media, which includes advanced DMEM/F-12 (Thermo Fisher Scientific, cat. 12634028), 10 mM HEPES (Thermo Fisher Scientific, cat. 15630080), 1X GlutaMAX supplement (Thermo Fisher Scientific, cat. 35050061), 0.1 mg/mL primocin (InvivoGen, cat. ant-pm-2), 10% defined fetal bovine serum, heat inactivated (HyClone Laboratories Inc., cat. SH30070.03HI), 50% L-WRN conditioned media (ATCC, cat. CRL-3276), 1.25 mM N-Acetyl-L-cysteine (Sigma-Aldrich, cat. A9165), 10 mM nicotinamide (Sigma-Aldrich, cat. N0636), 1X B-27 supplement (Thermo Fisher Scientific, cat. 17504044), 1X N-2 supplement (Thermo Fisher Scientific, cat. 17502048), 10 microM Y-27632 dihydrochloride (Tocris Bioscience, cat. 1254), and 50 ng/mL human EGF recombinant protein (Thermo Fisher Scientific, cat. PHG0311). The 485176-168-R4-J1-PDC line was cultured in Panc media, which includes all 6C/Colon 1B media components plus 100 ng/mL human FGF-10 (Thermo Fisher Scientific, cat. 100-26), 500 nM SB-431542 (Selleckchem, cat. S1067), and gastrin (Tocris, cat. 3006).
[…]

[1] = compound alone, run of 04/16/2024
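Note: spheroids exposed to agents for one week before reading.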
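Throughout, for viability, T/C: 100% = DMSO vehicle control viability.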

Compound | viability, T/C (compound 0.0316 µM) | viability, T/C (compound 0.1 µM) | viability, T/C (compound 0.316 µM) | viability, T/C (compound 1 µM) | viability, T/C (compound 3.16 µM) | viability, T/C (compound 10 µM) | IC50 (curve of compound) | IC50 [1] | IC50 (compound alone, run of 04/22/2024) [nM] | viability, T/C (compound 0.000999 µM) | viability, T/C (compound 0.00316 µM) | viability, T/C (compound 0.00999 µM) | viability, T/C (compound 0.0999 µM)
COc1cc(C2c3cc4c(cc3C(OC3OC5COC(C)OC5C(O)C3O)C3COC(=O)C23)OCO4)cc(OC)c1O (centres undefined) | 95.5% and 105% and 91.1% | 66.3% and 70.6% and 95% | 79.4% and 67% and 81.2% | 29% and 29.6% and 53.9% | 14.7% and 15.7% and 30.7% | 10.9% and 9.42% and 17.9% | 616 nM and 427 nM and 1250 nM | – | – | – | – | – | –
COc1ccc([C@@H](O)c2cc(-c3ncnc4cc(N5CCOCC5)ccc34)c(F)cc2Cl)nn1 | 88.1% and 109% and 104% | 87% and 96.8% and 88.3% | 83.3% and 97% and 86.6% | 63.6% and 77.3% and 58.9% | 50.2% and 64.8% and 50.8% | 38% and 42.1% and 40.9% | 2810 nM and 6670 nM and 2890 nM | – | – | – | – | – | –
COc1cccc2c1C(=O)c1c(O)c3c(c(O)c1C2=O)CC(O)(C(=O)CO)CC3OC1CC(N)C(O)C(C)O1 (centres undefined) | 97.9% and 93.8% and 88.4% | 57.4% and 74.5% and 45% | 34.3% and 31.6% and 30.2% | 13.4% and 43% and 12.5% | 4.07% and 4.69% and 3.22% | 1.01% and 2.64% and 0.42% | 145 nM and 254 nM and 96.7 nM | – | – | – | – | – | –
COc1ncnc(C2CC2)c1-c1ncc2cnn(Cc3ccc(-c4nc(C(F)(F)F)cn4C(C)C)cc3)c2n1 | 116% (2×) and 103% | 88.7% and 102% and 106% | 105% and 113% and 124% | 85% and 107% and 113% | 116% and 114% and 132% | 124% and 108% and 134% | > 10000 nM | – | – | – | – | – | –
Cc1[nH]c2ccc(F)cc2c1-c1nc2c3cccnc3c3ncccc3c2[nH]1 | 106% [middle of 12 runs] | 100% [middle of 12 runs] | – | 102% [middle of 12 runs] | – | 89.7% [middle of 12 runs] | – | > 10000 nM | > 10000 | – | – | – | –
Cc1[nH]c2ccccc2c1CCNCc1ccc(/C=C/C(=O)NO)cc1 | 103% and 110% and 102% | – | 20.8% and 22.1% and 11.1% | – | – | – | 118 nM and 111 nM and 103 nM | – | – | 110% and 125% and 100% | 103% and 117% and 100% | 139% and 135% and 112% | 55.7% and 53.2% and 51%
Cc1cccc(N(C)C(=O)C2C(O)CCN2c2nc(C)cc(C(F)(F)F)c2C#N)c1 (centres undefined) | 120% and 113% and 96.8% | 86.4% and 98.3% and 105% | 90% and 104% and 107% | 98.8% and 98.2% and 100% | 120% and 115% and 123% | 118% and 110% and 140% | > 10000 nM | – | – | – | – | – | –
Cc1cnc(CNC(=O)c2c(=O)c3ccc(N4CCCN(C)CC4)nc3n3c2sc2ccccc23)cn1 | 79.7% [middle of 12 runs] | – | 38.2% [middle of 12 runs] | 22.1% [middle of 12 runs] | 20.7% [middle of 12 runs] | 18.8% [middle of 12 runs] | – | 137 nM [middle of 11 runs] | – | – | – | – | –
Cn1ncnc1[C@H]1c2n[nH]c(=O)c3cc(F)cc(c23)N[C@@H]1c1ccc(F)cc1 | 78.9% and 94.1% and 78.3% | – | 60.1% and 87.9% and 72.1% | – | – | – | > 316 nM | – | – | 94.9% and 94.7% and 84.8% | 81.5% and 95.2% and 80.6% | 92.4% and 99.2% and 79.1% | 86.8% and 89.5% and 85.8%
Nc1ccn(C2OC(CO)C(O)C2(F)F)c(=O)n1 (centres undefined) | 95.8% and 80% and 84.4% | 86% and 65.7% and 69.4% | 75.9% and 57.5% and 71% | 17% and 46.2% and 22.6% | 9.14% and 18.9% and 7.37% | 8.29% and 13.5% and 6.71% | 524 nM and 534 nM and 518 nM | – | – | – | – | – | –
O=C(NO)c1cnc(N2CCN(S(=O)(=O)c3ccc4ccccc4c3)CC2)nc1 | 120% and 129% and 128% | 106% and 103% and 98.8% | 97.3% and 66.4% and 48.3% | 42.6% and 28.9% and 15% | 0.27% and 0.42% and 0.06% | 0.25% and 0.27% and 0.09% | 838 nM and 501 nM and 307 nM | – | – | – | – | – | –
O=C(c1cc(Cc2n[nH]c(=O)c3ccccc23)ccc1F)N1CCN(C(=O)C2CC2)CC1 | 96.2% and 106% and 90.6% | 93.6% and 88.4% and 70.8% | 85.3% and 86.5% and 89.5% | 65.6% and 88% and 66.8% | 89.8% and 92.1% and 83.6% | 91.2% and 81.6% and 80.2% | > 10000 nM | – | – | – | – | – | –
O=c1[nH]cc(F)c(=O)[nH]1 | 86.1% and 107% and 116% | 86% and 88.3% and 87.4% | 89.2% and 109% and 92.6% | 80% and 99% and 101% | 47.1% and 45% and 102% | 20.3% and 18.2% and 54.8% | 2850 nM and 2840 nM and > 10000 nM | – | – | – | – | – | –
